Measurements: ChEMBL document CHEMBL1151388, “Isolation and Structure of 14,15-Epoxyprieurianin From the South American Tree Guarea guidona” (1982)
In brackets after ≈: the same amount, converted by molar mass. Activity calls are given as the source filed them. No cut-off for these calls is given here.

Experiments:
P388 [1] = experiment: Cytotoxicity against mouse P388 cells; type: functional; settings: for EC50: read-out: ED50 (the source's name)
P388 [2] = experiment: In vivo cytotoxicity against mouse P388 cells up to 8 mg/kg; type: functional, organism-based; parameters: dose 8 mg/kg

Row | Compound | EC50 (P388 [1]) | Activity (P388 [2]) | Activity (P388 [1])
1 | C=C1[C@@H]([C@@]2(C)[C@@H](OC(C)=O)CC(=O)O[C@](C)(COC(C)=O)[C@@H]2C(=O)OC)[C@@H](OC=O)[C@H](OC(=O)[C@H](O)[C@H](C)CC)[C@@]2(C)[C@H](c3ccoc3)CC(=O)[C@]12O [PRIEURIANIN] | 4.4 µg/mL (≈ 5.88 µM) | inactive | –
2 | C=C1[C@H]([C@]2(C)[C@@H](OC(C)=O)CC(=O)O[C@](C)(COC(C)=O)[C@@H]2CC(=O)OC)[C@@H](OC=O)[C@H](OC(=O)[C@H](O)[C@H](C)CC)[C@]2(C)[C@@H](c3ccoc3)C[C@@H]3O[C@]132 | 0.47 µg/mL (≈ 0.629 µM) | – | –
3 | CC1(C)C(=O)C=C[C@]2(C)[C@H]3CC[C@@]4(C)[C@H](c5ccoc5)OC(=O)[C@H]5O[C@]54[C@]3(C)C(=O)C[C@@H]12 | – | – | inactive
